Calls of active or inactive are those of the source. The calls are words filed in the database; no cut-off is given here.
Key:
Type in all cases: functional
SW1573 [1] = experiment: Cell cycle arrest in human SW1573 cells assessed as decrease in accumulation at S phase at 3 uM after 24 hrs by propidium iodide staining-based FACS analysis
HeLa [2] = experiment: Cell cycle arrest in human HeLa cells assessed as accumulation at S phase at 6 uM after 24 hrs by propidium iodide staining-based FACS analysis
T47D [3] = experiment: Growth inhibition of human T47D cells after 48 hrs by sulforhodamine B assay
A2780 = experiment: Growth inhibition of human A2780 cells after 48 hrs by sulforhodamine B assay; conditions: A2780, 48 h
SW1573 [4] = experiment: Cell cycle arrest in human SW1573 cells assessed as accumulation at G2/M phase at 3 uM after 24 hrs by propidium iodide staining-based FACS analysis
WiDr [5] = experiment: Cell cycle arrest in human WiDr cells assessed as decrease in accumulation at S phase at 6 uM after 24 hrs by propidium iodide staining-based FACS analysis
HeLa [6] = experiment: Cell cycle arrest in human HeLa cells assessed as accumulation at G2/M phase at 6 uM after 24 hrs by propidium iodide staining-based FACS analysis
T47D [7] = experiment: Cell cycle arrest in human T47D cells assessed as accumulation at G2/M phase at 6 uM after 24 hrs by propidium iodide staining-based FACS analysis
SW1573 [8] = experiment: Growth inhibition of human SW1573 cells after 48 hrs by sulforhodamine B assay; conditions: SW1573, 48 h
HeLa [9] = experiment: Cell cycle arrest in human HeLa cells assessed as accumulation at G2/M phase at 3 uM after 24 hrs by propidium iodide staining-based FACS analysis
HeLa [10] = experiment: Cell cycle arrest in human HeLa cells assessed as decrease in accumulation at G0/G1 phase at 6 uM after 24 hrs by propidium iodide staining-based FACS analysis
WiDr [11] = experiment: Cell cycle arrest in human WiDr cells assessed as accumulation at G2/M phase at 6 uM after 24 hrs by propidium iodide staining-based FACS analysis
SW1573 [12] = experiment: Cell cycle arrest in human SW1573 cells assessed as accumulation at S phase at 6 uM after 24 hrs by propidium iodide staining-based FACS analysis
T47D [13] = experiment: Cell cycle arrest in human T47D cells assessed as decrease in accumulation at S phase at 6 uM after 24 hrs by propidium iodide staining-based FACS analysis
WiDr [14] = experiment: Growth inhibition of human WiDr cells after 48 hrs by sulforhodamine B assay
T47D [15] = experiment: Cell cycle arrest in human T47D cells assessed as increase in accumulation at sub G0 phase at 3 to 6 uM treated for 24 hrs measured after 24 hrs of drug washout by propidium iodide staining-based FACS analysis
HeLa [16] = experiment: Growth inhibition of human HeLa cells after 48 hrs by sulforhodamine B assay
SW1573 [17] = experiment: Cell cycle arrest in human SW1573 cells assessed as decrease in accumulation at G0/G1 phase at 6 uM after 24 hrs by propidium iodide staining-based FACS analysis
HBL-100 = experiment: Growth inhibition of human HBL100 cells after 48 hrs by sulforhodamine B assay; conditions: HBL-100, 48 h
WiDr [18] = experiment: Cell cycle arrest in human WiDr cells assessed as increase in accumulation at sub G0 phase at 3 to 6 uM treated for 24 hrs measured after 24 hrs of drug washout by propidium iodide staining-based FACS analysis
HeLa [19] = experiment: Cell cycle arrest in human HeLa cells assessed as decrease in accumulation at S phase at 3 uM after 24 hrs by propidium iodide staining-based FACS analysis
SW1573 [20] = experiment: Cell cycle arrest in human SW1573 cells assessed as accumulation at G2/M phase at 6 uM after 24 hrs by propidium iodide staining-based FACS analysis
T47D [21] = experiment: Cell cycle arrest in human T47D cells assessed as minor accumulation at G2/M phase at 5 to 20 uM after 24 hrs by propidium iodide staining-based FACS analysis
T47D [22] = experiment: Cell cycle arrest in human T47D cells assessed as minor accumulation at S phase at 5 to 20 uM after 24 hrs by propidium iodide staining-based FACS analysis
WiDr [23] = experiment: Cell cycle arrest in human WiDr cells assessed as minor accumulation at G2/M phase at 5 to 20 uM after 24 hrs by propidium iodide staining-based FACS analysis
HeLa [24] = experiment: Cell cycle arrest in human HeLa cells assessed as minor accumulation at S phase at 5 to 20 uM after 24 hrs by propidium iodide staining-based FACS analysis
SW1573 [25] = experiment: Cell cycle arrest in human SW1573 cells assessed as minor accumulation at S phase at 5 to 20 uM after 24 hrs by propidium iodide staining-based FACS analysis
SW1573 [26] = experiment: Cell cycle arrest in human SW1573 cells assessed as minor accumulation at G2/M phase at 5 to 20 uM after 24 hrs by propidium iodide staining-based FACS analysis
HeLa [27] = experiment: Cell cycle arrest in human HeLa cells assessed as minor accumulation at G2/M phase at 5 to 20 uM after 24 hrs by propidium iodide staining-based FACS analysis
WiDr [28] = experiment: Cell cycle arrest in human WiDr cells assessed as minor accumulation at S phase at 5 to 20 uM after 24 hrs by propidium iodide staining-based FACS analysis

Row | GI50 (T47D [3]; read-out: GI50) | GI50 (T47D [3]; read-out: pGI50 (converted)) | pGI50 (A2780) | GI50 (A2780; read-out: GI50) | GI50 (SW1573 [8]; read-out: GI50) | GI50 (SW1573 [8]; read-out: pGI50 (converted)) | pGI50 (HeLa [16]) | GI50 (HeLa [16]; read-out: GI50) | pGI50 (T47D [3]) | pGI50 (SW1573 [8]) | GI50 (A2780; read-out: pGI50 (converted)) | GI50 (HeLa [16]; read-out: pGI50 (converted)) | Compound | pGI50 (WiDr [14]) | GI50 (WiDr [14]; read-out: GI50) | pGI50 (HBL-100) | GI50 (HBL-100; read-out: GI50) | GI50 (WiDr [14]; read-out: pGI50 (converted)) | GI50 (HBL-100; read-out: pGI50 (converted)) | also measured
1 | > 100 µM |  | 4 | > 100 µM | > 100 µM |  | 4 | > 100 µM | 4 | 4 |  |  | C=C(CO)[C@@H]1CC[C@@]2(C)CCC[C@@](C)(O)[C@@H]2C1 [ILICIC ALCOHOL] | 4 | > 100 µM | 4 | > 100 µM |  |  | 
2 | 35 µM |  |  | 18 µM | 18 µM | 4.74 µM |  | 13 µM | 4.48 |  | 4.74 µM | 4.88 µM | C=C(C(=O)OC)[C@@H]1CC[C@@]2(C)CCCC(C)=C2C1 |  | 38 µM |  | 14 µM | 4.45 µM | 4.86 µM | 

Further lines, the compound ahead of its results:

Row | Compound | GI50 (T47D [3]; read-out: GI50) | GI50 (T47D [3]; read-out: pGI50 (converted)) | pGI50 (A2780) | GI50 (A2780; read-out: GI50) | GI50 (SW1573 [8]; read-out: GI50) | GI50 (SW1573 [8]; read-out: pGI50 (converted)) | pGI50 (HeLa [16]) | GI50 (HeLa [16]; read-out: GI50) | pGI50 (T47D [3]) | pGI50 (SW1573 [8]) | GI50 (A2780; read-out: pGI50 (converted)) | GI50 (HeLa [16]; read-out: pGI50 (converted)) | pGI50 (WiDr [14]) | GI50 (WiDr [14]; read-out: GI50) | pGI50 (HBL-100) | GI50 (HBL-100; read-out: GI50) | GI50 (WiDr [14]; read-out: pGI50 (converted)) | GI50 (HBL-100; read-out: pGI50 (converted)) | also measured
3 | C=C(C(=O)OC)[C@@H]1CCC2=CC(=O)C[C@H](C)[C@@]2(C)C1 [TESSARIC ACID METHYL ESTER] | 2.4 µM | 5.62 µM | 5.75 | 1.9 µM | 3.8 µM | 5.44 µM | 5.35 | 4.5 µM |  |  |  |  | 5.74 | 2 µM | 5.63 | 2.4 µM |  |  | Activity (SW1573 [1]): Active; Activity (HeLa [2]): Active; Activity (SW1573 [4]): Active; Activity (WiDr [5]): Active; Activity (HeLa [6]): Active; Activity (T47D [7]): Active; Activity (HeLa [9]): Active; Activity (HeLa [10]): Active; Activity (WiDr [11]): Active; Activity (SW1573 [12]): Active; Activity (T47D [13]): Active; Activity (T47D [15]): Active; Activity (SW1573 [17]): Active; Activity (WiDr [18]): Active; Activity (HeLa [19]): Active; Activity (SW1573 [20]): Active
4 | C=C(C(=O)O)[C@@H]1CCC2=CC(=O)C[C@H](C)[C@@]2(C)C1 [TESSARIC ACID] | > 100 µM |  | 4 | > 100 µM | > 100 µM |  | 4 | > 100 µM | 4 | 4 |  |  | 4 | > 100 µM | 4 | > 100 µM |  |  | 
5 | C=C(C=O)[C@@H]1CC[C@@]2(C)CCC[C@@](C)(O)[C@@H]2C1 [ILICIC ALDEHYDE] | 6.5 µM | 5.19 µM |  | 1.8 µM | 2 µM |  |  | 16 µM |  | 5.72 | 5.58 µM | 4.8 µM |  | 12 µM |  | 2.8 µM | 4.92 µM | 5.56 µM | Activity (T47D [21]): Active; Activity (T47D [22]): Active; Activity (WiDr [23]): Active; Activity (HeLa [24]): Active; Activity (SW1573 [25]): Active; Activity (SW1573 [26]): Active; Activity (HeLa [27]): Active; Activity (WiDr [28]): Active

Reference: ChEMBL document CHEMBL1152527, “Tessaric acid derivatives induce G2/M cell cycle arrest in human solid tumor cell lines” (2009)
